# From patent publication US4594340A, “25,26-dehydro-1α,24R-dihydroxycholecalciferol and 25,26-dehydro-1α,24S-dihydroxycholecalciferol and the epimeric mixture” (Hoffmann-La Roche Inc., priority 1984, dated 1986)
# Read-outs that look alike come from different tables or passages of the source.
# Key:
# HL-60 cells [1] = assay: Anti-proliferative effect on HL-60 cells (Coulter Counter enumeration); assay type: cell-based, human (patient); conditions: for HL-60 Cells per ml / inhibition at 0.09 µM: 90 × 10^-9 molar; for inhibition at 0.015 µM / inhibition at 0.045 µM / inhibition at 0.09 µM: Homo sapiens, read-out: percent reduction of cell numbers relative to control; for inhibition at 0.045 µM: 45 × 10^-9 molar
# Protocol: (§1) Cultures of HL-60 cells were established in the absence (control) or presence of various concentrations of the test compound. After a 4-day incubation period, the cultures were evaluated for proliferation of tumor cells, tumor cell viability, and cellular differentiation. Proliferation was assessed by directly enumerating the increased number of tumor cells resulting from incubation. Viability was determined by dye exclusion technique to learn whether any of the compounds were lethal to cultured HL-60 cells. Cellular differentiation was evaluated by determining the number of cells which had acquired the enzymes necessary to support a respiratory burst and the functional ability to phagocytose (bind/internalize) particulate material from their environment; both activities being characteristic of mature macrophages and granulocytes,
# (§2) Tissure culture medium used in these experiments was RPM1-1640 supplemented prior to use to 10% v/v with fetal bovine serum (heat inactivated at 56° for 30 minutes), to 130 units per ml with penicillin and 130 μg per ml with streptomycin, and to an additional 1.6 millimolar with L-glutamine.
# (§3) Experimental compounds were dissolved in sufficient ethanol to yield stock solutions of 1×10^-2 molar. Reduced lighting was employed when working with compounds and stock solutions were stored in the dark at -20° in an argon atmosphere. Compounds were diluted with tissue culture medium and added to flasks containing HL-60 cells to achieve the final concentrations described in each experiment.
# (§4) The promyelocytic (HL-60) tumor cell line was derived from a patient with acute promyelocytic leukemia. HL-60 cells were maintained in liquid culture by serial weekly passage in tissue culture medium. In any experiment, three replicate flasks were incubated without compound (control) or in the presence of varying concentrations of compound. […]
# Quantitation of proliferation was done by enumerating the number of HL-60 cells in each individual flasks (3 flasks per experimental point) using a model ZBI Coulter Counter. Results are shown as the number of cells per ml of tissue culture medium expressed as the mean±standard deviation and as percent reduction of cell number calculated according to the formula: [formula] Experimental cultures with the same or slightly greater cell numbers than control cultures are reported as zero percent reduction.
# HL-60 cells [2] = assay: Differentiation of HL-60 cells by phagocytosis; assay type: cell-based, human (patient)
# Protocol: as §1, with “After a 4-day incubation period, the cultures were evaluated for proliferation of tumor cells, tumor cell viability, and cellular differentiation.” left out
# as §2, §3, §4
# Quantitation of differentiated HL-60 cells on a functional basis was done by enumerating the number of cells in any sample which had acquired the ability to phagocytose (bind/internalize) particulate material from their environment, a characteristic of mature macrophages and granulocytes. Sufficient cells were pooled from replicate cultures, centrifuged at 200×g, washed once with serum-free tissue culture medium, and resuspended to 1×10^6 cells per ml in serum-free tissue culture medium. To a 1.0 ml sample in 12×75 mm tubes was added 0.1 ml of a 1:10 dilution from stock of fluorescent microspheres obtained as a gift from Dr. William Dreyer at the California Institute of Technology. Latex beads, yeast cells or red blood cells may also be used in place of fluorescent microsphere in this step. Cells and particle were mixed, incubated for 15 minutes in a 37° water bath, collected in a transfer pipet, and overlayed onto a 5 ml cushion of fetal bovine serum in a 15 ml conical culture tube. After centrifugation at 150×g for 8 minutes, the excess particulate (upper layer) was discarded as was the remainder of the serum cushion leaving only a cell pellet and cell-associated particulate. The resultant pellets were resuspended in 1.0 ml of tissue culture medium containing 10% fetal bovine serum, transferred to a hemacytometer, and evaluated microscopically using both ultraviolet and visible light sources. Undifferentiated and differentiated cells present in any sample were determined microscopically by surveying 200-400 cells per sample. Non-fluorescent cells, identified only by visible light, were judged to be undifferentiated. Generally, differentiated cells were intensely fluorescent clearly indicating extensive phagocytosis of particulate material. Results are expressed as the percentage of differentiated cells present in any sample as calculated according to the formula: [formula]
smiles,measurement,setting,value
"C=C(C)[C@H](O)CC[C@@H](C)[C@H]1CC[C@H]2/C(=C/C=C3/C[C@@H](O)C[C@H](O)C3=C)CCC[C@]12C [25,26-dehydro-1α,24R-dihydroxycholecalciferol]",HL-60 Cells per ml,HL-60 cells [1]; day 3,11.8 ± 0.1 cells per ml (× 10^-4)
same,HL-60 Cells per ml,HL-60 cells [1]; day 4,15.4 ± 0.9 cells per ml (× 10^-4)
same,HL-60 Cells per ml,HL-60 cells [1]; day 6,21.4 ± 1.1 cells per ml (× 10^-4)
same,inhibition at 0.015 µM,"HL-60 cells [1]; HL-60, 72 h, 15 × 10^-9 molar (first line of that concentration), day 3",0%
same,inhibition at 0.015 µM,"HL-60 cells [1]; HL-60, 72 h, 15 × 10^-9 molar (second line), day 3",0%
same,inhibition at 0.045 µM,"HL-60 cells [1]; HL-60, 72 h, day 3",0%
same,inhibition at 0.09 µM,"HL-60 cells [1]; HL-60, 72 h, day 3",0%
same,inhibition at 0.015 µM,"HL-60 cells [1]; HL-60, 96 h, 15 × 10^-9 molar (first line of that concentration), day 4",9%
same,inhibition at 0.015 µM,"HL-60 cells [1]; HL-60, 96 h, 15 × 10^-9 molar (second line), day 4",17%
same,inhibition at 0.045 µM,"HL-60 cells [1]; HL-60, 96 h, day 4",28%
same,inhibition at 0.09 µM,"HL-60 cells [1]; HL-60, 96 h, day 4",42%
same,inhibition at 0.015 µM,"HL-60 cells [1]; HL-60, 144 h, 15 × 10^-9 molar (first line of that concentration), day 6",11%
same,inhibition at 0.015 µM,"HL-60 cells [1]; HL-60, 144 h, 15 × 10^-9 molar (second line), day 6",44%
same,inhibition at 0.045 µM,"HL-60 cells [1]; HL-60, 144 h, day 6",75%
same,inhibition at 0.09 µM,"HL-60 cells [1]; HL-60, 144 h, day 6",83%
same,inhibition of proliferation detectable by cell enumeration as early as,HL-60 cells [1]; day of incubation,4 days
same,% diff. (Phagocytosis),"HL-60 cells [2]; 5 × 10^-9 molar, day 3",7%
same,diff. cells / total (Phagocytosis),"HL-60 cells [2]; 5 × 10^-9 molar, day 3",24/329
same,% diff. (Phagocytosis),"HL-60 cells [2]; 5 × 10^-9 molar, day 4",10%
same,diff. cells / total (Phagocytosis),"HL-60 cells [2]; 5 × 10^-9 molar, day 4",22/223
same,% diff. (Phagocytosis),"HL-60 cells [2]; 5 × 10^-9 molar, day 6",16%
same,diff. cells / total (Phagocytosis),"HL-60 cells [2]; 5 × 10^-9 molar, day 6",45/290
same,% diff. (Phagocytosis),"HL-60 cells [2]; 15 × 10^-9 molar, day 3",24%
same,diff. cells / total (Phagocytosis),"HL-60 cells [2]; 15 × 10^-9 molar, day 3",76/324
same,% diff. (Phagocytosis),"HL-60 cells [2]; 15 × 10^-9 molar, day 4",29%
same,diff. cells / total (Phagocytosis),"HL-60 cells [2]; 15 × 10^-9 molar, day 4",96/332
same,% diff. (Phagocytosis),"HL-60 cells [2]; 15 × 10^-9 molar, day 6",25%
same,diff. cells / total (Phagocytosis),"HL-60 cells [2]; 15 × 10^-9 molar, day 6",83/333
same,% diff. (Phagocytosis),"HL-60 cells [2]; 45 × 10^-9 molar, day 3",53%
same,diff. cells / total (Phagocytosis),"HL-60 cells [2]; 45 × 10^-9 molar, day 3",174/329
same,% diff. (Phagocytosis),"HL-60 cells [2]; 45 × 10^-9 molar, day 4",70%
same,diff. cells / total (Phagocytosis),"HL-60 cells [2]; 45 × 10^-9 molar, day 4",206/296
same,% diff. (Phagocytosis),"HL-60 cells [2]; 45 × 10^-9 molar, day 6",79%
same,diff. cells / total (Phagocytosis),"HL-60 cells [2]; 45 × 10^-9 molar, day 6",176/223
same,% diff. (Phagocytosis),"HL-60 cells [2]; 90 × 10^-9 molar, day 3",69%
same,diff. cells / total (Phagocytosis),"HL-60 cells [2]; 90 × 10^-9 molar, day 3",181/261
same,% diff. (Phagocytosis),"HL-60 cells [2]; 90 × 10^-9 molar, day 4",86%
same,diff. cells / total (Phagocytosis),"HL-60 cells [2]; 90 × 10^-9 molar, day 4",219/255
same,% diff. (Phagocytosis),"HL-60 cells [2]; 90 × 10^-9 molar, day 6",96%
same,diff. cells / total (Phagocytosis),"HL-60 cells [2]; 90 × 10^-9 molar, day 6",200/218
same,cells capable of phagocytosis,HL-60 cells [2]; compared with control cultures,dose-related increase in the proportion of cells capable of phagocytosis
